Assay results published in patent publication EP4582080A1, “DISPENSER FOR MUCOSAL ADMINISTRATION COMPRISING 2-DEOXY-GLUCOSE OR ANALOGUES THEREOF” (G.ST Antivirals GmbH, priority 2024, dated 2025).

Key:
[1] = Mucus penetration through mucus on a semipermeable membrane, measured via mass spectrometry; format: in vitro ADME; conditions: 35mg/mL in citrate buffer, pH5 versus pH7, 30min at 37 °C (Fig. 6)
Protocol: The present invention is further illustrated by the following figures and examples, without being restricted thereto. • Fig. 1: Imine formation of 2-deoxy-D-glucose (2-DG) with L-lysine in citric acid•Na2HPO4 buffer (pH 7) at different 2-DG concentrations incubated at 37 °C. Indicated values are means (n=4) ± SEM. • Fig. 2: Imine formation of 2-deoxy-D-glucose (2-DG, 35mg/mL) with L-lysine (O.lmg/mL) in citric acid•Na2HPO4 buffer at different pH values incubated at 37 °C. Indicated values are means (n=4) ± SEM. • Fig. 3: Imine formation of 2-deoxy-D-glucose (2-DG, 35mg/mL) with L-lysine (O.lmg/mL) in citrate buffer at different pH values incubated at 37 °C. Indicated values are means (n=4) ± SEM. • Fig. 4: Imine formation of 2-deoxy-D-glucose (2-DG, 35mg/mL) with L-lysine (O.lmg/mL) in tartrate buffer at different pH values incubated at 37 °C. Indicated values are means (n=4) ± SEM. • Fig. 5: Imine formation of 2-deoxy-D-glucose (2-DG, 35mg/mL) with L-lysine (O.lmg/mL) in maleate buffer at different pH values incubated at 37 °C. Indicated values are means (n=4) ± SEM. • Fig. 6: Mucus penetration of 2-deoxy-D-glucose (2-DG), 2-fluoro-2-deoxy-D-glucose (2-FDG) or 2-fluoro-2-deoxy-D-mannose (2-FDM) (all 35mg/mL) in citrate buffer at pH5 and pH7, incubated for 30min at 37 °C.
We measured the mucus penetration potential in the following manner: After applying mucus onto a semipermeable membrane, formulations containing 2-DG or analogues at indicated pH were applied onto the mucus. Penetrated 2-DG or analogues was measured via mass spectrometry.

[2] = Imine (Schiff's base) formation of 2-DG with L-lysine in buffer; format: physicochemical
Protocol: The present invention is further illustrated by the following figures and examples, without being restricted thereto. • Fig. 1: Imine formation of 2-deoxy-D-glucose (2-DG) with L-lysine in citric acid•Na2HPO4 buffer (pH 7) at different 2-DG concentrations incubated at 37 °C. Indicated values are means (n=4) ± SEM. • Fig. 2: Imine formation of 2-deoxy-D-glucose (2-DG, 35mg/mL) with L-lysine (O.lmg/mL) in citric acid•Na2HPO4 buffer at different pH values incubated at 37 °C. Indicated values are means (n=4) ± SEM. • Fig. 3: Imine formation of 2-deoxy-D-glucose (2-DG, 35mg/mL) with L-lysine (O.lmg/mL) in citrate buffer at different pH values incubated at 37 °C. Indicated values are means (n=4) ± SEM. • Fig. 4: Imine formation of 2-deoxy-D-glucose (2-DG, 35mg/mL) with L-lysine (O.lmg/mL) in tartrate buffer at different pH values incubated at 37 °C. Indicated values are means (n=4) ± SEM. • Fig. 5: Imine formation of 2-deoxy-D-glucose (2-DG, 35mg/mL) with L-lysine (O.lmg/mL) in maleate buffer at different pH values incubated at 37 °C. Indicated values are means (n=4) ± SEM. • Fig. 6: Mucus penetration of 2-deoxy-D-glucose (2-DG), 2-fluoro-2-deoxy-D-glucose (2-FDG) or 2-fluoro-2-deoxy-D-mannose (2-FDM) (all 35mg/mL) in citrate buffer at pH5 and pH7, incubated for 30min at 37 °C. […]

Row | Mucus penetration [1] | SMILES | Imine formation ([2]; 2-DG 35mg/mL, L-lysine (O.lmg/mL), acidic pH (pH < 7.0) in citric acid•Na2HPO4, citrate, tartrate, maleate buffers, 37 °C (Fig. 2-5)) | Imine formation ([2]; with L-lysine in citric acid•Na2HPO4 buffer (pH 7), different 2-DG concentrations, 37 °C (Fig. 1))
1 | increased mucus penetration properties | O=C[C@H](F)[C@@H](O)[C@H](O)[C@H](O)CO [2-FDG, 2-fluoro-2-deoxy-D-glucose] | – | –
2 | increased mucus penetration properties | O=CC[C@@H](O)[C@H](O)[C@H](O)CO [2-DG, 2-deoxy-D-glucose] | distinct lowering in the formation of Schiff's bases | lead to the formation of Schiff's bases (imines)
3 | increased mucus penetration properties | O=C[C@@H](F)[C@@H](O)[C@H](O)[C@H](O)CO [2-FDM, 2-fluoro-2-deoxy-D-mannose] | – | –
